Measured values from the supplement of paper PMC13207355.

Columns and labels:
Conditions in all cases: exposure time: 72 h
E13 [1] = patient-derived glioblastoma stem cells of classical subtype; test: surviving fraction (nuclei count normalised to DMSO); higher = more cells surviving (less toxic)
E21 [2] = patient-derived glioblastoma stem cells of mesenchymal subtype; test: as above
E28 [3] = patient-derived glioblastoma stem cells of classical subtype; test: as above
E34 [4] = patient-derived glioblastoma stem cells of proneural subtype; test: as above
E57 [5] = patient-derived glioblastoma stem cells of mesenchymal subtype; test: as above
FT3469 [6] = normal neural stem cell line; test: as above
E13 [7] = test: phenotypic distance (Euclidean, principal components) from DMSO controls (arbitrary units); higher = stronger morphological change
E21 [8] = test: as above
E28 [9] = test: as above
E34 [10] = test: as above
E57 [11] = test: as above
FT3469 [12] = test: as above
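For phenotypic distance (Euclidean, principal components) from DMSO controls in this document: cell Painting imaging in 384-well plates, CellProfiler features reduced to at least 20 principal components, Euclidean distance versus same-plate DMSO vehicle wells (0.1% v/v), median over six images per well.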
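For surviving fraction (nuclei count normalised to DMSO) in this document: nuclei counted by high-content imaging of Hoechst-stained cells in laminin-coated 384-well plates, relative to 0.1% DMSO vehicle wells, with staurosporine as cell-death control.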

CN1C(=O)[C@@]23C[C@]4([C@]56C[C@@]78SS[C@@](CO)(C(=O)N7[C@H]5Nc5ccccc56)N(C)C8=O)c5ccccc5N[C@@H]4N2C(=O)[C@]1(CO)SS3 [Chaetocin]
Conditions | phenotypic distance | surviving fraction
E13 [1], 4.1 nM | – | 0.552
E13 [1], 12.3 nM | – | 0.4
E13 [1], 37 nM | – | 0.0566
E13 [1], 111.1 nM | – | 0.0323
E13 [1], 333.3 nM | – | 0.00998
E13 [1], 1000 nM | – | 0.0119
E13 [1], 3000 nM | – | 0.0124
E13 [7], 4.1 nM | 2.76 | –
E13 [7], 12.3 nM | 3.18 | –
E13 [7], 37 nM | 5.87 | –
E13 [7], 111.1 nM | 7.1 | –
E13 [7], 333.3 nM | 10.5 | –
E13 [7], 1000 nM | 9.83 | –
E13 [7], 3000 nM | 10.7 | –
E21 [2], 4.1 nM | – | 0.253
E21 [2], 12.3 nM | – | 0.0911
E21 [2], 37 nM | – | 0.0242
E21 [2], 111.1 nM | – | 0.00808
E21 [2], 333.3 nM | – | 0.00862
E21 [2], 1000 nM | – | 0.0113
E21 [2], 3000 nM | – | 0.00808
E21 [8], 4.1 nM | 4.37 | –
E21 [8], 12.3 nM | 4.95 | –
E21 [8], 37 nM | 7.07 | –
E21 [8], 111.1 nM | 10.1 | –
E21 [8], 333.3 nM | 12.7 | –
E21 [8], 1000 nM | 11.4 | –
E21 [8], 3000 nM | 14.2 | –
E28 [3], 4.1 nM | – | 0.328
E28 [3], 12.3 nM | – | 0.281
E28 [3], 37 nM | – | 0.1561
E28 [3], 111.1 nM | – | 0.111
E28 [3], 333.3 nM | – | 0.00802
E28 [3], 1000 nM | – | 0.00283
E28 [3], 3000 nM | – | 0.00707
E28 [9], 4.1 nM | 1.98 | –
E28 [9], 12.3 nM | 2.51 | –
E28 [9], 37 nM | 3.933 | –
E28 [9], 111.1 nM | 5.55 | –
E28 [9], 333.3 nM | 10.4 | –
E28 [9], 1000 nM | 9.23 | –
E28 [9], 3000 nM | 9.7 | –
E34 [4], 4.1 nM | – | 0.41
E34 [4], 12.3 nM | – | 0.345
E34 [4], 37 nM | – | 0.149
E34 [4], 111.1 nM | – | 0.0449
E34 [4], 333.3 nM | – | 0.0206
E34 [4], 1000 nM | – | 0.0187
E34 [4], 3000 nM | – | 0.0159
E34 [10], 4.1 nM | 2.24 | –
E34 [10], 12.3 nM | 3.35 | –
E34 [10], 37 nM | 6.13 | –
E34 [10], 111.1 nM | 7.1327 | –
E34 [10], 333.3 nM | 10.8 | –
E34 [10], 1000 nM | 13 | –
E34 [10], 3000 nM | 11.9 | –
E57 [5], 4.1 nM | – | 0.765
E57 [5], 12.3 nM | – | 0.402
E57 [5], 37 nM | – | 0.056
E57 [5], 111.1 nM | – | 0.0464
E57 [5], 333.3 nM | – | 0.00359
E57 [5], 1000 nM | – | 0.00745
E57 [5], 3000 nM | – | 0.00248
E57 [11], 4.1 nM | 2.84 | –
E57 [11], 12.3 nM | 3.23 | –
E57 [11], 37 nM | 4.87 | –
E57 [11], 111.1 nM | 5.13 | –
E57 [11], 333.3 nM | 8.15 | –
E57 [11], 1000 nM | 9.97 | –
E57 [11], 3000 nM | 10.7 | –
FT3469 [6], 4.1 nM | – | 0.518
FT3469 [6], 12.3 nM | – | 0.481
FT3469 [6], 37 nM | – | 0.364
FT3469 [6], 111.1 nM | – | 0.194
FT3469 [6], 333.3 nM | – | 0.00806
FT3469 [6], 1000 nM | – | 0.0296
FT3469 [6], 3000 nM | – | 0.0116
FT3469 [12], 4.1 nM | 3.69 | –
FT3469 [12], 12.3 nM | 3.49 | –
FT3469 [12], 37 nM | 4.19 | –
FT3469 [12], 111.1 nM | 5.8 | –
FT3469 [12], 333.3 nM | 10.7 | –
FT3469 [12], 1000 nM | 10.1 | –
FT3469 [12], 3000 nM | 9.44 | –

CN1CCC(NC(=O)c2cc(-c3c(O)cc(O)cc3Oc3ccc([N+](=O)[O-])cc3)on2)CC1 [NMS-E973]
Conditions | phenotypic distance | surviving fraction
E13 [1], 4.1 nM | – | 0.964
E13 [1], 12.3 nM | – | 0.953
E13 [1], 37 nM | – | 0.944
E13 [1], 111.1 nM | – | 0.93
E13 [1], 333.3 nM | – | 0.219
E13 [1], 1000 nM | – | 0.192
E13 [1], 3000 nM | – | 0.21
E13 [7], 4.1 nM | 0.577 | –
E13 [7], 12.3 nM | 0.562 | –
E13 [7], 37 nM | 0.639 | –
E13 [7], 111.1 nM | 1.31 | –
E13 [7], 333.3 nM | 4.489 | –
E13 [7], 1000 nM | 5.34 | –
E13 [7], 3000 nM | 5.62 | –
E21 [2], 4.1 nM | – | 0.891
E21 [2], 12.3 nM | – | 0.959
E21 [2], 37 nM | – | 0.926
E21 [2], 111.1 nM | – | 0.817
E21 [2], 333.3 nM | – | 0.416
E21 [2], 1000 nM | – | 0.257
E21 [2], 3000 nM | – | 0.116
E21 [8], 4.1 nM | 0.751 | –
E21 [8], 12.3 nM | 0.626 | –
E21 [8], 37 nM | 0.843 | –
E21 [8], 111.1 nM | 1.82 | –
E21 [8], 333.3 nM | 4.147 | –
E21 [8], 1000 nM | 5.3 | –
E21 [8], 3000 nM | 5.82 | –
E28 [3], 4.1 nM | – | 1.01
E28 [3], 12.3 nM | – | 0.913
E28 [3], 37 nM | – | 0.909
E28 [3], 111.1 nM | – | 0.657
E28 [3], 333.3 nM | – | 0.31
E28 [3], 1000 nM | – | 0.0561
E28 [3], 3000 nM | – | 0.0288
E28 [9], 4.1 nM | 0.607 | –
E28 [9], 12.3 nM | 0.671 | –
E28 [9], 37 nM | 0.573 | –
E28 [9], 111.1 nM | 1.19 | –
E28 [9], 333.3 nM | 2.09 | –
E28 [9], 1000 nM | 5.08 | –
E28 [9], 3000 nM | 6.81 | –
E34 [4], 4.1 nM | – | 0.907
E34 [4], 12.3 nM | – | 0.921
E34 [4], 37 nM | – | 0.855
E34 [4], 111.1 nM | – | 0.804
E34 [4], 333.3 nM | – | 0.45
E34 [4], 1000 nM | – | 0.289
E34 [4], 3000 nM | – | 0.0598
E34 [10], 4.1 nM | 0.575 | –
E34 [10], 12.3 nM | 0.675 | –
E34 [10], 37 nM | 0.615 | –
E34 [10], 111.1 nM | 1.12 | –
E34 [10], 333.3 nM | 1.98 | –
E34 [10], 1000 nM | 3.12 | –
E34 [10], 3000 nM | 5.65 | –
E57 [5], 4.1 nM | – | 0.941
E57 [5], 12.3 nM | – | 1.01
E57 [5], 37 nM | – | 0.9484
E57 [5], 111.1 nM | – | 1.01
E57 [5], 333.3 nM | – | 0.373
E57 [5], 1000 nM | – | 0.0919
E57 [5], 3000 nM | – | 0.0144
E57 [11], 4.1 nM | 0.456 | –
E57 [11], 12.3 nM | 0.414 | –
E57 [11], 37 nM | 0.335 | –
E57 [11], 111.1 nM | 1.07 | –
E57 [11], 333.3 nM | 2.57 | –
E57 [11], 1000 nM | 3.42 | –
E57 [11], 3000 nM | 4.94 | –
FT3469 [6], 4.1 nM | – | 0.918
FT3469 [6], 12.3 nM | – | 0.951
FT3469 [6], 37 nM | – | 0.975
FT3469 [6], 111.1 nM | – | 0.798
FT3469 [6], 333.3 nM | – | 0.677
FT3469 [6], 1000 nM | – | 0.4901
FT3469 [6], 3000 nM | – | 0.4
FT3469 [12], 4.1 nM | 2.07 | –
FT3469 [12], 12.3 nM | 1.21 | –
FT3469 [12], 37 nM | 1.04 | –
FT3469 [12], 111.1 nM | 1.74 | –
FT3469 [12], 333.3 nM | 1.89 | –
FT3469 [12], 1000 nM | 2.79 | –
FT3469 [12], 3000 nM | 3.7 | –
